Assay results published in patent publication US5158958A, “Imidazo[4,5-b]quinolinyl oxy alkyl sulfonyl piperidine derivatives” (Bristol-Myers Squibb Company, priority 1992, dated 1992).
Counter-ions that a name gives are not always drawn.

Experiment: Aqueous solubility
Type: physicochemical
Conditions: water, compounds prepared as dihydrochloride salts

Row | Compound | solubility
1 | O=S(=O)(CCCOc1ccc2[nH]c3nc(O)nc-3cc2c1)C1CCNCC1 [Cmpd 17a, 4-[[3-[[(2-,3-Dihydro-2-oxo-1H-imidazo[4,5-b]guinolin7-yl)oxy]propylsulfonyl]piperidinedihydrochloride] | > 10000 µg/mL
2 | O=S(=O)(CCCOc1ccc2[nH]c3nc(O)nc-3cc2c1)C1CCN(Cc2ccccc2)CC1 [Cmpd 17b, 4-[[3-[2,3-Dihydro-2-oxy-1H-imidazo[4,5-b]quinolin-7-yloxy]propyl]sulfonyl]-1-(phenylmethyl)piperidine dihydrochloride] | > 10000 µg/mL
3 | O=S(=O)(CCCOc1ccc2[nH]c3nc(O)nc-3cc2c1)C1CCN(Cc2cccc(C(F)(F)F)c2)CC1 [Cmpd 17i, 4-[3-[2,3-Dihydro-2-oxo1H-imidazo[4,5-b]quinolin-7-yl-oxy]propyl]sulfony]1-[(3-trifluoromethylhenvlmethyphenylmethyl]piperidine dihydrochloride] | < 5000 µg/mL
4 | O=S(=O)(CCCCOc1ccc2[nH]c3nc(O)nc-3cc2c1)C1CCNCC1 [Cmpd 18a, 4-[[2,3-Dihydro-2-oxo-1H-imidazo[4,5-b]quinolin-7-yloxy]butyl]sulfonyl]piperidine dihydrochloride] | > 10000 µg/mL
5 | O=S(=O)(CCCCOc1ccc2[nH]c3nc(O)nc-3cc2c1)C1CCN(Cc2ccccc2)CC1 [Cmpd 18b, 4[[3-[2,3-Dihydro-2-oxo-1H-imidazo[4,5-b]quinolin-7-yloxyl]butylsulfonyl]-1-(phenylmethyl)piperidinedihydrochloride] | ~5000 µg/mL
6 | O=S(=O)(CCCCOc1ccc2[nH]c3nc(O)nc-3cc2c1)C1CCN(CC2CCCCC2)CC1 [Cmpd 18d, 1-(Cyclohexylmethyl)-4-[[3-[2,3-Dihydro-2-oxo-1H-imidaxo [4,5-b]quinolin-7-yloxy]butylsulfonylpiperidinedihydrochloride] | ~2000 µg/mL
7 | O=S(=O)(CCCCOc1ccc2[nH]c3nc(O)nc-3cc2c1)C1CCN(Cc2ccc(F)cc2)CC1 [l8c, dihydrochloride] | ~2000 µg/mL

Results, then the compound that gave them:

Row | solubility | Compound
8 | > 10000 µg/mL | O=S(=O)(CCCOc1ccc2[nH]c3nc(O)nc-3cc2c1)C1CCN(Cc2ccc(F)cc2)CC1 [Cmpd 17c, 4-[[3-[2,3-Dihydro-2-oxo1H-imidazo[4,5-b]quinolin-7piperidinedihydrochloride]
9 | < 10000 µg/mL | O=S(=O)(CCCOc1ccc2[nH]c3nc(O)nc-3cc2c1)C1CCN(CC2CCCCC2)CC1 [Cmpd 17d, 4-[[3-[2,3-Dihydro-2-oxo-1H-imidazo[4,5-b]quinolin-7-yl-oxy]propyl]sulfonyl]-(cyclohexylmethyl)piperidine dihydrochloride]
10 | < 10000 µg/mL | CCC(CC)CN1CCC(S(=O)(=O)CCCOc2ccc3nc4[nH]c(=O)[nH]c4cc3c2)CC1.Cl.Cl [Cmpd 17e, 4-[[3-[2,3-Dihydro-2-oxo-1H-imidazo[4,5-b]quinolin-7yl-oxy]propyl]sulfonyl]1-(2-ethylbut-1yl)piperidine dihydrochloride]
11 | > 10000 µg/mL | CC(C)CN1CCC(S(=O)(=O)CCCOc2ccc3[nH]c4nc(O)nc-4cc3c2)CC1 [Cmpd 17f, 4[[3-[2,3-Dihydro-2-oxo-1H-imidazo[4.5-b]quinolin-7yloxy]propyl]sulfonyll-1-(2-methylpropyl)piperidinedihydrochloride]
12 | < 5000 µg/mL | O=S(=O)(CCCOc1ccc2[nH]c3nc(O)nc-3cc2c1)C1CCN(CCC2CCCCC2)CC1 [Cmpd 17g, 1-(2-Cyclohexylethyl)-4-[[(3-[(2,3-dihydro-2-oxo-1H-imidazo[4,5-b]quinolin-7-yloxy]propyl]sulfonyl]piperidinedihydrochloride]
13 | < 5000 µg/mL | O=S(=O)(CCCOc1ccc2[nH]c3nc(O)nc-3cc2c1)C1CCN(CCc2ccccc2)CC1 [Cmpd 17h, 4-[[3-[2,3-Dihydro-2-oxo-1H-imidazo[4,5-b]quinolin-7-yl-oxy]propyl]sulfonyl]-b 1-(2-phenylethyl)piperidine dihydrochloride]
14 | > 10000 µg/mL | O=S(=O)(CCCOc1ccc2[nH]c3nc(O)nc-3cc2c1)C1CCN(CC2CCCCO2)CC1 (stereo not drawn) [Cmpd 17k, 4[[2,3-Dihydro-2-oxo-1H-imidazo[4,5-b]quinolin-7-yl-pxy]propyl]sulfonyl]-1-[(tetrahydro-2H-pyran-2-yl)piperidine dihydrochloride]
15 | ~5000 µg/mL | CCC(CC)CN1CCC(S(=O)(=O)CCCCOc2ccc3[nH]c4nc(O)nc-4cc3c2)CC1 [l8e, 4[[3-[2,3-Dihydro-2-oxo-1H-imidazo[4.5-b]qouinolin-7-yloxy]butylsulfonyl]-1-(2-ethylbut-1-yl)piperidinedihydrochloride]
